From paper PMC9953717, “Novel Green Fluorescent Polyamines to Analyze ATP13A2 and ATP13A3 Activity in the Mammalian Polyamine Transport System” (Biomolecules, 2023)

Biological target: T1, human ATP13A3 WT (A3 WT-OE) (Homo sapiens, UniProt Q9H7F0)
T1 construct: compared with catalytically dead D498N
T1 sequence (Q9H7F0 1-1226): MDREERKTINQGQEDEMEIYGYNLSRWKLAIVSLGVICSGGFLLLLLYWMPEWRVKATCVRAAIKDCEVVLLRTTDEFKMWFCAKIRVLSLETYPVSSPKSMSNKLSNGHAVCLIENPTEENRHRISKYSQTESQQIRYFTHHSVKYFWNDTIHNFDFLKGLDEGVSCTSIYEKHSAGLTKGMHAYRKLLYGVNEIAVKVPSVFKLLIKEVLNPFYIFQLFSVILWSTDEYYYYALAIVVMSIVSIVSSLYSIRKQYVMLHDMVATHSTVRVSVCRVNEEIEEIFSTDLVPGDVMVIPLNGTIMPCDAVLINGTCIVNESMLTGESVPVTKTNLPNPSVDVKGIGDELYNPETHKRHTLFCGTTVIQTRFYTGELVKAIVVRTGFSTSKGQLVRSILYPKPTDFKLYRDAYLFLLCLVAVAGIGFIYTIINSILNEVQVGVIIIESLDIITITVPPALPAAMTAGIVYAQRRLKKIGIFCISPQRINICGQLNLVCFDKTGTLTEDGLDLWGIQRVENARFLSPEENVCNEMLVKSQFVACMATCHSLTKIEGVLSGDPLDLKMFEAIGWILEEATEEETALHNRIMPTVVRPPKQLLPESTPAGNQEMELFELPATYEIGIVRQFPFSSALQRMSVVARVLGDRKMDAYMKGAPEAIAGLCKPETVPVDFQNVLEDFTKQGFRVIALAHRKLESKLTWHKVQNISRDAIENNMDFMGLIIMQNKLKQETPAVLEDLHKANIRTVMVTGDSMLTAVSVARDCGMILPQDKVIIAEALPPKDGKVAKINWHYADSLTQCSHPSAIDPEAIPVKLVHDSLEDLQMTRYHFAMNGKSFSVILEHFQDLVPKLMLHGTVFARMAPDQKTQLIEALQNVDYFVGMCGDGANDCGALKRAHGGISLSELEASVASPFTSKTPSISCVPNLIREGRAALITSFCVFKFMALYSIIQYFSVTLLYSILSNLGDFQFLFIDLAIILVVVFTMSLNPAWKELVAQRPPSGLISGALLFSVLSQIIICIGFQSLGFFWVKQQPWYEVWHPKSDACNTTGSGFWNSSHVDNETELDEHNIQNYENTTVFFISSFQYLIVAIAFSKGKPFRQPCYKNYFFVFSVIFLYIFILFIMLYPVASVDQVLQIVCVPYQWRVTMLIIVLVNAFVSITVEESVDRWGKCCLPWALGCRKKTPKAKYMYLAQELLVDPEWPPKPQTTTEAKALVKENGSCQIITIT
Experiment: radiolabeled uptake in HMEC-1 cells, WT versus D498N overexpression
Assay type: cell-based
Conditions: 30 min, 37 °C, labelled compound

fold uptake at 5 μM | SMILES
26 fold | NCCCCN [14C-PUT]
41 fold | NCCCCNCCCN [14C-SPD]
